Results reported in publication PMC10150366, “Discovery of an In Vivo Chemical Probe for BCL6 Inhibition by Optimization of Tricyclic Quinolinones” (Journal of Medicinal Chemistry, 2023).

Columns and labels:
HT = assay: 14-day cell proliferation assay, HT; format: cell-based; conditions: Homo sapiens, 14-day assay
Text: (§1) DMSO final concentration.
(§2) After a short centrifugation the
(§3) (1st emission filter) / 450-80 nm (2nd emission filter). The % inhibition at each test concentration was […]
(§4) sigmoidal four-parameter logistic fit equation.
(§5) 2.3 Cell proliferation assay
(§6) Aldrich) supplemented with 10% FBS (Gibco). Compounds were initially dispensed into 96-well U-bottom […]
(§7) transferred onto the cells.
(§8) Assay plates containing cells
(§9) (Beckman Coulter). The volume of medium containing 2500 cells in the control well was calculated and this volume of cells was transferred from every well of the assay plates to the corresponding well of the fresh plates containing compound. After 14 days, CellTiter Glo reagent (Promega) was added to the medium in each well of the assay plate at a ratio of 1:2, mixed on a plate shaker, then incubated at room temperature for 10 minutes. Luminescence was measured using an Envision plate reader (Perkin Elmer) and the relative luminescence at each compound concentration, compared to DMSO alone, was calculated. GI50 were determined using a 4-parameter curve fit in Dotmatics (Bishops Stortford, UK).

SU-DHL-4 = assay: 14-day cell proliferation assay, SU-DHL-4; format: cell-based; conditions: Homo sapiens, 14-day assay
Text: as §1, §2, §3, §4, §5, §6, §7, §8, §9

HTR2B = HTR2B (Homo sapiens, UniProt P41595); assay: SAFETYscan Calcium Flux HTR2B Antagonist; format: cell-based
Text: (§10) Supplement jm3c00155_si_002.xlsx, sheet "SAFETYScan" | column: RC50 (uM); Max Response

HRH2 = HRH2 (Homo sapiens, UniProt P25021); assay: SAFETYscan cAMP HRH2 Agonist; format: cell-based
Text: as §10

HTR1B = HTR1B (Homo sapiens, UniProt P28222); assay: SAFETYscan cAMP HTR1B Agonist; format: cell-based
Text: Supplement jm3c00155_si_002.xlsx, sheet "SAFETYScan" | column: RC50 (uM); Hill; Max Response

ADRA2A = molecular target: T1, ADRA2A (Homo sapiens, UniProt P08913); assay: SAFETYscan cAMP ADRA2A Antagonist; format: cell-based
T1 sequence (P08913 1-465): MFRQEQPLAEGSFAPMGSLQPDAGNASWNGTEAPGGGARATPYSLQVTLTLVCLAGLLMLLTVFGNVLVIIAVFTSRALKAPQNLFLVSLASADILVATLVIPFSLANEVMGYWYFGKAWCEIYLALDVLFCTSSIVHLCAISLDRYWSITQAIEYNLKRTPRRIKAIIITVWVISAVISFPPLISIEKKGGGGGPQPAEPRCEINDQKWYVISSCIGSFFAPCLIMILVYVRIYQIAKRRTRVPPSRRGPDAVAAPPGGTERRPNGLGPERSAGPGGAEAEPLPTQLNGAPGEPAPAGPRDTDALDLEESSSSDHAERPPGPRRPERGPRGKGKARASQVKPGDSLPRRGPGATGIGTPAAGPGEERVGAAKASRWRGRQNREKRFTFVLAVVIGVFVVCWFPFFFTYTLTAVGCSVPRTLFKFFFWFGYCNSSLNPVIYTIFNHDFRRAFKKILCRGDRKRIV
Text: as §10

DRD2S = DRD2S (Homo sapiens, UniProt P14416); assay: SAFETYscan cAMP DRD2S Antagonist; format: cell-based
Text: as §10

CAV1.2 = CAV1.2 (Homo sapiens, UniProt Q13936); assay: in vitro; format: cell-based
Text: as §10

HTR3A = molecular target: T2, HTR3A (Homo sapiens, UniProt P46098); assay: SAFETYscan Ion Channel HTR3A Blocker; format: cell-based
T2 sequence (P46098 24-478): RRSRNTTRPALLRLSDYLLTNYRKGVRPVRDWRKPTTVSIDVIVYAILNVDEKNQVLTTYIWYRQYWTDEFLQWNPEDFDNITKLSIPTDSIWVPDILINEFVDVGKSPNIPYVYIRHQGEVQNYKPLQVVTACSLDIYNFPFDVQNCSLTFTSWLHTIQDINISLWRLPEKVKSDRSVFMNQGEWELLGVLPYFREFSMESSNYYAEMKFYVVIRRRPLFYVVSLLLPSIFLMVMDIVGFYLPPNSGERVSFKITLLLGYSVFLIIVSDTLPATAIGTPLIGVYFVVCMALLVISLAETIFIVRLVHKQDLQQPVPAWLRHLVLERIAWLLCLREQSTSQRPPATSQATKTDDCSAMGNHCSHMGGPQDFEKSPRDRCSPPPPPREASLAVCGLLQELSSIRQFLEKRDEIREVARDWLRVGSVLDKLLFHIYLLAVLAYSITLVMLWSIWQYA
Text: as §10

nAChR(a4/b2) = nAChR(a4/b2) (Homo sapiens, UniProt P17787+P43681); assay: SAFETYscan Ion Channel nAChR(a4/b2) Opener; format: cell-based
Text: as §10

INSR = INSR (Homo sapiens, UniProt P06213); assay: SAFETYscan Kinases Binding INSR Inhibitor
Text: as §10

GR = molecular target: T3, GR (Homo sapiens, UniProt P04150); assay: SAFETYscan NHR Protein Interaction GR Antagonist; format: cell-based
T3 sequence (P04150 1-777): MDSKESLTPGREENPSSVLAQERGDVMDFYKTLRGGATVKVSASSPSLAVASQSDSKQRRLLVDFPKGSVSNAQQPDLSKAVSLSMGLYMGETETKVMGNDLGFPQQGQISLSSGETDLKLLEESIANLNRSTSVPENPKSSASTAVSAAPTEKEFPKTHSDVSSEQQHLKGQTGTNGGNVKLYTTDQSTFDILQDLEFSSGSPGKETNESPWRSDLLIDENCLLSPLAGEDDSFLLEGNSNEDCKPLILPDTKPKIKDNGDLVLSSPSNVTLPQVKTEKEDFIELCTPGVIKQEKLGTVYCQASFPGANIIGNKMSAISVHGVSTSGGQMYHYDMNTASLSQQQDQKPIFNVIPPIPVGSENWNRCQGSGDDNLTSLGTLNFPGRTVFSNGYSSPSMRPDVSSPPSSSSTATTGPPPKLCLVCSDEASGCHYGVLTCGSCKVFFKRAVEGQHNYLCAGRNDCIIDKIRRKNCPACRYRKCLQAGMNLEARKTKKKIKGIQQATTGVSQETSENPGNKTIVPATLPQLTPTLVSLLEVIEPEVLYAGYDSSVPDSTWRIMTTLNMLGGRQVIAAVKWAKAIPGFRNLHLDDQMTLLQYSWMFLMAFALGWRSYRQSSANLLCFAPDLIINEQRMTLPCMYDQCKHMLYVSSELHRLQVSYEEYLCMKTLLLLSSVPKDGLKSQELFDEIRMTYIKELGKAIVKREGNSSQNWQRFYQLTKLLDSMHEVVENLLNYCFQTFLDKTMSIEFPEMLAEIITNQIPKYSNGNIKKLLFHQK
Text: as §10

Sequence of HTR1B (P28222 whole entry): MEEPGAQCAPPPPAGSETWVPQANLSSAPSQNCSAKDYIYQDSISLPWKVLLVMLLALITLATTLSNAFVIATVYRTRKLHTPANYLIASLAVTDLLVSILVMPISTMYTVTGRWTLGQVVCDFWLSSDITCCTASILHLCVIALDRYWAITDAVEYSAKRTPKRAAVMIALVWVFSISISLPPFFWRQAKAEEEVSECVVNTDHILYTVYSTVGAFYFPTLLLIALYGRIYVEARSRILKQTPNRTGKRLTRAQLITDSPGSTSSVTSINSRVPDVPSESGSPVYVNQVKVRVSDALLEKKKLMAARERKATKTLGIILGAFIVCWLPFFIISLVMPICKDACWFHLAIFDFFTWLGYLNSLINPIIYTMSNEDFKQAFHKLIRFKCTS
Sequence of CAV1.2 (Q13936 whole entry): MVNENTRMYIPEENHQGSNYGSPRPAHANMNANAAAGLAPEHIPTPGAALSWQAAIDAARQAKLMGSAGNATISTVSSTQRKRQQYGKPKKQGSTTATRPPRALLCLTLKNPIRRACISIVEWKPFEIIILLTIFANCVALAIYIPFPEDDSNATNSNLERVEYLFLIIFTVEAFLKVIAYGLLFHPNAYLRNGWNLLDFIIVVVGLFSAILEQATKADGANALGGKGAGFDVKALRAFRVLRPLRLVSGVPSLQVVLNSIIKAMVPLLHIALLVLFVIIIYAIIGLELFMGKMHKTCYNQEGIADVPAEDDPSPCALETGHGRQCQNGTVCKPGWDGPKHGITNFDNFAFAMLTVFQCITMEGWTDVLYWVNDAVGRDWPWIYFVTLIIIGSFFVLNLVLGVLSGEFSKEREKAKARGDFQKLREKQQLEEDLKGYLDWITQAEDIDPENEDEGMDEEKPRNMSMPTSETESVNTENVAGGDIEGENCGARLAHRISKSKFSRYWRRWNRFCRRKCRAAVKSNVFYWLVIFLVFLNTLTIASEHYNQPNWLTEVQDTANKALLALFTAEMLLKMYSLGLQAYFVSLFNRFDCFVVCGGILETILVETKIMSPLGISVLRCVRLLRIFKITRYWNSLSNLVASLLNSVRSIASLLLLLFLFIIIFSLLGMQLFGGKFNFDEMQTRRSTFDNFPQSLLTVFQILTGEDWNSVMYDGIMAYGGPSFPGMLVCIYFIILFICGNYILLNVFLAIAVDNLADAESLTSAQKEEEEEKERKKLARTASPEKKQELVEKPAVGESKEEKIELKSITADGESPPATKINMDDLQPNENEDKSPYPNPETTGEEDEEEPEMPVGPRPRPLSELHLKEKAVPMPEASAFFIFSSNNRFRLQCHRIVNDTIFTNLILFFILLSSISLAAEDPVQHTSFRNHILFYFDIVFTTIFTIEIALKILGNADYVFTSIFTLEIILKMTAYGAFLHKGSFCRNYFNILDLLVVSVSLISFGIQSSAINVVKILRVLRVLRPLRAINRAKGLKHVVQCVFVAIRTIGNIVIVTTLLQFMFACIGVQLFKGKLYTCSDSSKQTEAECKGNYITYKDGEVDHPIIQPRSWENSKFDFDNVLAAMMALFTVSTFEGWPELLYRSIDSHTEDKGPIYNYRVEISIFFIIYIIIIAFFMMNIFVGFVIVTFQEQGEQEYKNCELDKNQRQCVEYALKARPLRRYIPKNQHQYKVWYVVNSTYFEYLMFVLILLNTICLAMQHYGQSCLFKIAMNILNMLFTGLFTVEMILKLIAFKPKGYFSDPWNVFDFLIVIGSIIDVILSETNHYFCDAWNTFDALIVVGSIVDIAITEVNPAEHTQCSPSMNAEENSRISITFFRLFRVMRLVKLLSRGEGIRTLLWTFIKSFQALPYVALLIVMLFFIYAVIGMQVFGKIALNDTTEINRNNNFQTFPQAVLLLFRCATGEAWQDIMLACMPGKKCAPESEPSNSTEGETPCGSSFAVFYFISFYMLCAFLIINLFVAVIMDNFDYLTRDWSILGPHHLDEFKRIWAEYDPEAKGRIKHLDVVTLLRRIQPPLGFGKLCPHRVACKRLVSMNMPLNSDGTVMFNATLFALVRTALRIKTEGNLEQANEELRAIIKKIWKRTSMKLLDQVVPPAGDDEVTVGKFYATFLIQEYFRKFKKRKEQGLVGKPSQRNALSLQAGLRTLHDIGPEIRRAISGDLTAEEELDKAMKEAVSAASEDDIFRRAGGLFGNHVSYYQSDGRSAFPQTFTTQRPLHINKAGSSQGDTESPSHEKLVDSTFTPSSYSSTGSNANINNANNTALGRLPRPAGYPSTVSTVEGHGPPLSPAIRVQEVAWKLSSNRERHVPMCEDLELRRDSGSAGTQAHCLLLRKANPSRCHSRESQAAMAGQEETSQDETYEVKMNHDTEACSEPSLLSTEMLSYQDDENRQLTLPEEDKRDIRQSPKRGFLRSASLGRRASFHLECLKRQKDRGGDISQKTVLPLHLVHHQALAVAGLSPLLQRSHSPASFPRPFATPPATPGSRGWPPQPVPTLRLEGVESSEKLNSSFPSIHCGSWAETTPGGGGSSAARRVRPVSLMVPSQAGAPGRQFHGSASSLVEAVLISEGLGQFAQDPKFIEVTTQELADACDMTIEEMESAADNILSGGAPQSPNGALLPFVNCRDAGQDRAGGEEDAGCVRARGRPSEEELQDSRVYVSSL
Sequence of CAV1.2 (Q08289 whole entry partner): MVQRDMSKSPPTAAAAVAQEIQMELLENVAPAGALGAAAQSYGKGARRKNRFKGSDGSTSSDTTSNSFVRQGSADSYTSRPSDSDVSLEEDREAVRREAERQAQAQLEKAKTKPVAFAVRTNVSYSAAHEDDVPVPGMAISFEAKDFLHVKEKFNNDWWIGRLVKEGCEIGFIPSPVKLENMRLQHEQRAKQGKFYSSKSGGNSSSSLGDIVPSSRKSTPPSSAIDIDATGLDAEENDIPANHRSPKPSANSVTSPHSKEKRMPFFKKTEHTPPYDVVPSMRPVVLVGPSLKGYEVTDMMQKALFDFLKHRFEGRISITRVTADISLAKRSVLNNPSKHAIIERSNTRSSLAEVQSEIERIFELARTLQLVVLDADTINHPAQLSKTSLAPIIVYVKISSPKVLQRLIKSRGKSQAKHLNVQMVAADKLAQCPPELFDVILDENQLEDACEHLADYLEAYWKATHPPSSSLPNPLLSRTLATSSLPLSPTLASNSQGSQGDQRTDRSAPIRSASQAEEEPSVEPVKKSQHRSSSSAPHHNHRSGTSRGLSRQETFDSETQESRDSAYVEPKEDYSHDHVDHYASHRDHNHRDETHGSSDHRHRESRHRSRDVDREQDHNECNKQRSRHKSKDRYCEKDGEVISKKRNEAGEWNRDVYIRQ
Sequence of CAV1.2 (P54289 25-1103 partner): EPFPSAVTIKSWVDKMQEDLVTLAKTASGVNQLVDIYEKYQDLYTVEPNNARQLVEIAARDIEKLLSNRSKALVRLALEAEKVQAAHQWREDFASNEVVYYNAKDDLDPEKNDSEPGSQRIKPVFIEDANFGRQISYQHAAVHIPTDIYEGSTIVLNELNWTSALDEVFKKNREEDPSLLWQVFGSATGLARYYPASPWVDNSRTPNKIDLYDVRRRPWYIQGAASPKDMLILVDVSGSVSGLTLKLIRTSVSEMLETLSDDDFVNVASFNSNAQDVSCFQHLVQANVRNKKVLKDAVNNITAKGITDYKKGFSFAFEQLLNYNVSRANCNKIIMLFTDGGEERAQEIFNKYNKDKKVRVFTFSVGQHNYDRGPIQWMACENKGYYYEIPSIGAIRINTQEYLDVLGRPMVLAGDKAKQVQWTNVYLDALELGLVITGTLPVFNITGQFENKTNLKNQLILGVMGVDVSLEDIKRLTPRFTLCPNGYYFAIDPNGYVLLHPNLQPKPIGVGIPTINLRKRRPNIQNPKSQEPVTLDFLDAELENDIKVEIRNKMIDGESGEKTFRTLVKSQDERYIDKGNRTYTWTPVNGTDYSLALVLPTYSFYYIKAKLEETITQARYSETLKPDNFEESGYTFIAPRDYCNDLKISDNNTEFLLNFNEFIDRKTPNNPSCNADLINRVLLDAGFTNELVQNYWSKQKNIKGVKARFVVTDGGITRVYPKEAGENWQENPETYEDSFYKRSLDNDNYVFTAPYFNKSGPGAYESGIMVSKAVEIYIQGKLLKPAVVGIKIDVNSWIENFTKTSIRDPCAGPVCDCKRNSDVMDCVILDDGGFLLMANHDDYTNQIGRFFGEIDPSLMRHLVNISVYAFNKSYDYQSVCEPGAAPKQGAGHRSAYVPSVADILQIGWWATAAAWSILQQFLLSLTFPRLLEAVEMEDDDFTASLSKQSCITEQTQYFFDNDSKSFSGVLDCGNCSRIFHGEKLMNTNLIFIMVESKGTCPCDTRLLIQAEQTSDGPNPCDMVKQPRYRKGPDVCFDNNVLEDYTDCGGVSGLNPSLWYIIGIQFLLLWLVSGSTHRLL
Sequence of DRD2S (P14416 1-414 isoform P14416-2): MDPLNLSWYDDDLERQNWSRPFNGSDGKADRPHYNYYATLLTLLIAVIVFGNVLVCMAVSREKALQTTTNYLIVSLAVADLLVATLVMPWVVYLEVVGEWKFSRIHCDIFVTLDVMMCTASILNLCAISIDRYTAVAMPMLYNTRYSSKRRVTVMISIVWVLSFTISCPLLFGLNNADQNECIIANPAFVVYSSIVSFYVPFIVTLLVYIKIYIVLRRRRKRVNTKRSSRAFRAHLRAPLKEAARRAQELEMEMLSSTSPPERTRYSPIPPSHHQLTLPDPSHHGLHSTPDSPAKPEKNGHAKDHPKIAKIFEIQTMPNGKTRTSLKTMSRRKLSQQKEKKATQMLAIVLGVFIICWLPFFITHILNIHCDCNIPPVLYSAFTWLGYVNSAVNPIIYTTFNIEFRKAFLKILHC

For `Cn1c(=O)c2c(c3cc(Nc4ccnc(F)c4Cl)ccc31)N[C@@H](C1CC1)C(F)(F)CO2` [compound 17, (S)-10-((3-chloro-2-fluoropyridin-4-yl)amino)-2-cyclopropyl-3,3-difluoro-7-methyl-1,2,3,4-tetrahydro-[1,4]oxazepino[2,3-c]quinolin-6(7H)-one], which GI50 (HT) is on record?
Its GI50 is 0.545 µM.

What about the GI50 (SU-DHL-4) of the same compound?
Its GI50 is 1.38 µM.

What about the IC50 (HTR2B) of the same compound?
Its IC50 is > 10 µM.

And the Emax (HTR2B; HTR2B, Calcium Flux, Antagonist, read-out: Max Response)?
Its Emax is 0%.

What about the Emax (HRH2; read-out: Max Response) of the same compound?
Its Emax is 0%.

What about the EC50 (HRH2; read-out: RC50 (EC50)) of the same compound?
Its EC50 is > 10 µM.

What about the EC50 (HTR1B) of the same compound?
Its EC50 is 9.13 µM.

What about the Hill (HTR1B; HTR1B, cAMP, Agonist) of the same compound?
The Hill was 0.76.

What about the Emax (HTR1B; HTR1B, cAMP, Agonist, read-out: Max Response) of the same compound?
The Emax was 50.3%.

What about the IC50 (ADRA2A) of the same compound?
The IC50 was > 10 µM.

And the Emax (ADRA2A; ADRA2A, cAMP, Antagonist, read-out: Max Response)?
The Emax was 0%.

And the IC50 (DRD2S)?
Its IC50 is > 10 µM.

What about the Emax (DRD2S; DRD2S, cAMP, Antagonist, read-out: Max Response) of the same compound?
Its Emax is 0%.

And the Emax (CAV1.2)?
The Emax was 0%.

What about the IC50 (CAV1.2) of the same compound?
The IC50 was > 10 µM.

What about the IC50 (HTR3A) of the same compound?
Its IC50 is > 10 µM.

And the Emax (HTR3A; HTR3A, Ion Channel, Blocker, read-out: Max Response)?
The Emax was 0%.

And the EC50 (nAChR(a4/b2))?
The EC50 was > 10 µM.

And the Emax (nAChR(a4/b2); nAChR(a4/b2), Ion Channel, Opener, read-out: Max Response)?
Its Emax is 3.37%.

And the Emax (INSR; read-out: Max Response)?
Its Emax is 0%.

What about the IC50 (INSR; read-out: RC50 (IC50)) of the same compound?
Its IC50 is > 10 µM.

What about the Emax (GR; read-out: Max Response) of the same compound?
The Emax was 12.3%.

And the IC50 (GR; read-out: RC50 (IC50))?
Its IC50 is > 10 µM.
